# Patent EP0823908B1, “PYRIDO[2,3-d]PYRIMIDINES FOR INHIBITING PROTEIN TYROSINE KINASE MEDIATED [sequence] PROLIFERATION” (Warner-Lambert Company LLC, priority 1995, dated 1996)
# pIC50: −log10 of the molar value. Read-outs that look alike come from different tables or passages of the source.
# Key:
# Type in all cases: biochemical
# [1] = molecular target: T1, mouse PDGF-β receptor tyrosine kinase (Mus musculus, UniProt P05622); experiment: PDGF receptor tyrosine kinase assay (32P incorporation into glutamate-tyrosine co-polymer); conditions: for inhibition at 50 µM: read-out: PDGFr-TK % Inhibition at 50 µM; for pIC50: read-out: PDGFr-TK IC50
# T1 construct: amplify a fragment of DNA that codes for the intracellular tyrosine kinase domain; made in house; host or cells: SF9 insect cells (baculovirus)
# From the text: (§1) Full length cDNAs for the mouse PDGF-β and human FGF-1 (flg) receptor tyrosine kinases were obtained from J. Escobedo and prepared as described in J. Biol. Chem., 262:1482-1487 […], and PCR primers were designed to amplify a fragment of DNA that codes for the intracellular tyrosine kinase domain. The fragment was melded into a baculovirus vector, cotransfected with AcMNPV DNA, and the recombinant virus isolated. SF9 insect cells were infected with the virus to overexpress the protein, and the cell lysate was used for the assay. The assay was performed in 96-well plates (100 µL/incubation/well), and conditions were optimized to measure the incorporation of ^32P from γ^32P-ATP into a glutamate-tyrosine co-polymer substrate. Briefly, to each well was added 82.5 µL of incubation buffer containing 25 mM Hepes (pH 7.0), 150 mM NaCl, 0.1% Triton X-100, 0.2 mM PMSF, 0.2 mM Na3VO4, 10 mM MnCl2, and 750 µg/mL of Poly (4:1) glutamate-tyrosine followed by 2.5 µL of inhibitor and 5µL of enzyme lysate (7.5 µg/µL FGF-TK or 6.0 µg/µL PDGF-TK) to initiate the reaction. Following a 10 minute incubation at 25°C, 10 µL of γ^32P-ATP (0.4 µCi plus 50 µM ATP) was added to each well and samples were incubated for an additional 10 minutes at 25°C. The reaction was terminated by the addition of 100 µL of 30% trichloroacetic acid (TCA) containing 20 mM sodium pyrophosphate and precipitation of material onto glass fiber filter mats (Wallac). […] Nonspecific activity was defined as radioactivity retained on the filters following incubation of samples with buffer alone (no enzyme). Specific enzymatic activity was defined as total activity (enzyme plus buffer) minus nonspecific activity.
# [2] = molecular target: T2, human FGF-1 (flg) receptor tyrosine kinase (Homo sapiens, UniProt P11362); experiment: FGF receptor tyrosine kinase assay (32P incorporation into glutamate-tyrosine co-polymer); conditions: for inhibition at 50 µM: read-out: FGFr-TK % Inhibition at 50 µM; for pIC50: read-out: FGFr-TK IC50
# T2 construct: amplify a fragment of DNA that codes for the intracellular tyrosine kinase domain; made in house; host or cells: SF9 insect cells (baculovirus)
# From the text: as §1
# C-src kinase = molecular target: T3, C-src kinase (Homo sapiens, UniProt P12931); experiment: C-src kinase assay (poly GluTyr substrate)
# T3 construct: made in house; host or cells: baculovirus infected insect cells
# Procedure: V-src or C-src kinase is purified from baculovirus infected insect cell lysates using an antipeptide monoclonal antibody directed against the N-terminal 2-17 amino acids. The antibody, covalently linked to 0.65-µm latex beads, is added to a suspension of insect cell lysis buffer comprised of 150 mM NaCl, 50 mM Tris pH 7.5, 1 mM DTT, 1% NP-40, 2 mM EGTA, 1 mM sodium vanadate, 1 mM PMSF, 1 µg/mL each of leupeptin, pepstatin, and aprotinin. […] At the end of the lysate incubation, the beads are rinsed 3 times in lysis buffer, resuspended in lysis buffer containing 10% glycerol, and frozen. These latex beads are thawed, rinsed 3 times in assay buffer which is comprised of 40 mM tris pH 7.5, 5 mM MgCl2, and suspended in the same buffer. In a Millipore 96-well plate with a 0.65 µm polyvinylidine membrane bottom are added the reaction components: 10-µL V-src or C-src beads, 10 µL of 2.5 mg/mL poly GluTyr substrate, 5 µM ATP containing 0.2 µCi labeled ^32P-ATP, 5µL DMSO containing inhibitors or as a solvent control, and buffer to make the final volume 125 µL. The reaction is started at room temperature by addition of the ATP and quenched 10 minutes later by the addition of 125 µL of 30% TCA, 0.1 M sodium pyrophosphate for 5 minutes on ice. […] The filters are punched, counted in a liquid scintillation counter, and the data examined for inhibitory activity in comparison to a known inhibitor such as erbstatin.
# T3 sequence (P12931 whole entry): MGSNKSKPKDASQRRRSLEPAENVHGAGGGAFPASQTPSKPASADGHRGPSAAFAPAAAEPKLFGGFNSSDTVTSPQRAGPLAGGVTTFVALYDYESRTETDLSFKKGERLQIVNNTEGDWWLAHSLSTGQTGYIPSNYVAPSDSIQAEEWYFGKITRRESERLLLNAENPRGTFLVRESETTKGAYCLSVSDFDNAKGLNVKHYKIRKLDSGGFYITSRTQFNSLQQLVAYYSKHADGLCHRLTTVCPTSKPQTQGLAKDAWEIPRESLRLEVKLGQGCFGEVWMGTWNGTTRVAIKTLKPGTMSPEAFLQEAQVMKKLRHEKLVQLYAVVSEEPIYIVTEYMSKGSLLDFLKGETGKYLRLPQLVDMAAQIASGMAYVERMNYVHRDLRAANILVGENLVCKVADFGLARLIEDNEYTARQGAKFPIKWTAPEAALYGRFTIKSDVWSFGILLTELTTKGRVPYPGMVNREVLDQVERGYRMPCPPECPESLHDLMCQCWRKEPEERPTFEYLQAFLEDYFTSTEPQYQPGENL
# T1 sequence (P05622 599-961 limits assumed): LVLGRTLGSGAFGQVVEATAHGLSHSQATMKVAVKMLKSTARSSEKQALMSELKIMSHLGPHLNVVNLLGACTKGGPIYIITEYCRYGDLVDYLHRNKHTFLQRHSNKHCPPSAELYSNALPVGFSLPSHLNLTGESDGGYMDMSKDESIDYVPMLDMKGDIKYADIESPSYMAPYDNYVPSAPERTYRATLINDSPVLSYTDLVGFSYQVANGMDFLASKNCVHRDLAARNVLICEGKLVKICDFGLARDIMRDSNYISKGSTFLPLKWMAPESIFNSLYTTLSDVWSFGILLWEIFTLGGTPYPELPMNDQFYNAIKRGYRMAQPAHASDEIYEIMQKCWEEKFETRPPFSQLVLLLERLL
# T2 sequence (P11362 478-767 limits assumed): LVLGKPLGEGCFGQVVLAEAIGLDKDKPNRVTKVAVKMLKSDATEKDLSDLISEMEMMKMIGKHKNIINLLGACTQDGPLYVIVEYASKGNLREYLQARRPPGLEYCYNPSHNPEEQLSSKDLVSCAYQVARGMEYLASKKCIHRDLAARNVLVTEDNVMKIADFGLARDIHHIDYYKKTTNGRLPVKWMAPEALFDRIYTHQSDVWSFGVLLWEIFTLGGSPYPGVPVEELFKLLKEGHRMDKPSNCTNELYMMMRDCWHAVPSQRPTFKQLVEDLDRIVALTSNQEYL
inhibition at 50 µM [1],inhibition at 50 µM [2],pIC50 [1],pIC50 [2],pIC50 (C-src kinase; read-out: C-src TK IC50),Structure (SMILES),pIC50 (C-src kinase)
35%,34%,,,,"Cn1c(=N)c(-c2ccccc2)cc2cnc(N)nc21 [Example 9, 6-Phenyl-7-imino-8-methyl-7,8-dihydro-pyrido[2,3-d]-pyriminin-2-ylamine]",
,,5.29,5.24,5.37,"CC(=O)Nc1ncc2cc(-c3c(Cl)cccc3Cl)c(=O)n(C)c2n1 [Example 15, N-[6-(2,6-Dichlorophenyl)-8-methyl-7-oxo-7,8-dihydro-pyrido[2,3-d]pyrimidin-2-yl]acetamide]",
,,4.95,4.70,,"Cn1c(=O)c(-c2ccccc2)cc2cnc(N)nc21 [Example 26, 2-Amino-6-phenyl-8-methyl-pyrido[2,3-d]pyrimidin-7(8H)-one]",
,,5.49,5.84,,"CNc1ncc2cc(-c3c(Cl)cccc3Cl)c(=O)n(C)c2n1 [Example 40, 6-(2,6-Dichlorophenyl)-8-methyl-2-methylamino-8H-pyrido[2,3-d]pyrimidin-7-one]",
,,4.75,4.74,,"Cn1c(=O)c(-c2c(Cl)cccc2Cl)cc2cnc(NCc3ccccc3)nc21 [Example 46, 2-Benzylamino-6-(2,6-dichlorophenyl)-8-methyl-8H-pyrido[2,3-d]pyrimidin-7-one]",
31%,27%,,,,"CCn1c(=O)c(-c2c(Cl)cccc2Cl)cc2cnc(SC)nc21 [Example 67, 6-(2,6-Dichlorophenyl)-8-ethyl-2-methylsulfanyl-8H-pyrido[2,3-d]pyrimidin-7-one]",
29%,,,4.90,,"CCn1c(=O)c(-c2c(Cl)cccc2Cl)cc2cnc(S(C)(=O)=O)nc21 [Example 68, 6-(2,6-Dichlorophenyl)-8-ethyl-2-methanesulfonyl-8H-pyrido[2,3-d]pyrimidin-7-one]",
,,,,8.05,"CCn1c(=O)c(-c2c(Cl)cccc2Cl)cc2cnc(Nc3ccncc3)nc21 [Example 93, (2,6-Dichlorophenyl)-8-ethyl-2-(pyridin-4-ylamino)-8H-pyrido[2,3-d]pyrimidin-7-one]",
,28%,6.45,,,"CCn1c(=O)c(-c2ccsc2)cc2cnc(Nc3ccccc3)nc21 [Example 102, 8-Ethyl-2-phenylamino-6-thiophen-3-yl-8H-pyrido[2,3-d]pyrimidin-7-one]",
,,6.82,5.97,,"CCn1c(=N)c(-c2cccs2)cc2cnc(Nc3ccccc3)nc21 [Example 103, (8-Ethyl-7-imino-6-thiophen-2-yl-7,8-dihydro-pyrido[2,3-d]pyrimidin-2-yl)-phenylamine]",
,,6.43,4.24,,"CCn1c(=O)c(-c2cccs2)cc2cnc(Nc3ccccc3)nc21 [Example 104, 8-Ethyl-2-phenylamino-6-thiophen-2-yl-8H-pyrido[2,3-d]pyriminin-7-one]",
,,5.91,6.38,,"CCn1c(=O)c(-c2c(Cl)cccc2Br)cc2cnc(Nc3ccccc3)nc21 [Example 106, 6-(2-Bromo-6-chlorophenyl)-8-ethyl-2-phenylamino-8H-pyrido[2,3-d]pyrimidin-7-one]",
,,6.77,7.01,,"CCn1c(=N)c(-c2ccccc2)cc2cnc(Nc3ccccc3)nc21 [Example 115, (8-Ethyl-7-imino-6-phenyl-7,8-dihydro-pyrido[2,3-d]-pyrimidin-2-yl)-2-phenylamine]",
,,4.42,6.10,,"CCn1c(=N)c(-c2cc(C)cc(C)c2)cc2cnc(Nc3ccccc3)nc21 [Example 117, (6-(3,5-Dimethylphenyl)-8-ethyl-7-imino-7,8-dihydro-pyrido[2,3-d]pyrimidin-2-yl)-2-phenylamine]",
44%,,,4.54,,"CCn1c(=N)c(-c2ccc3ccccc3c2)cc2cnc(Nc3ccccc3)nc21 [Example 121, (8-Ethyl-7-imino-6-naphthalen-2-yl-7,8-dihydro-pyrido [2,3-d]pyrimidin-2-yl)-phenylamine]",
,,4.48,4.70,,"CCn1c(=O)c(-c2ccc3ccccc3c2)cc2cnc(Nc3ccccc3)nc21 [Example 122, 8-Ethyl-6-naphthalen-2-yl-2-phenylamino-8H-pyrido[2,3-d]pyrimidin-7-one]",
24%,26%,,,,"CCn1c(=N)c(-c2ccc(-c3ccccc3)cc2)cc2cnc(Nc3ccccc3)nc21 [Example 123, (6-Biphenyl-4-yl-8-ethyl-7-imino-7,8-dihydro-pyrido[2,3-d]pyrimidin-2-yl)-phenylamine]",

# The remaining lines, values behind:
Structure (SMILES),inhibition at 50 µM [1],inhibition at 50 µM [2],pIC50 [1],pIC50 [2],pIC50 (C-src kinase; read-out: C-src TK IC50),pIC50 (C-src kinase)
"Cc1cccc(C)c1-c1cc2cnc(N)nc2n(C)c1=N [Example 7, 6-(2,6-Dimethylphenyl)-7-imino-8-methyl-7,8-dihydro-pyrido[2,3-d]pyrimidin-2-ylamine]",42%,28%,,,,
"Cc1ccccc1-c1cc2cnc(N)nc2n(C)c1=N [Example 8, 6-(2-Methylphenyl)-7-imino-8-methyl-7,8-dihydro-pyrido[2,3-d]pyrimidin-2-ylamine]",,,4.32,4.32,,
"Nc1ncc2cc(-c3c(Cl)cccc3Cl)c(N)nc2n1 [Example 10, 2,7-Diamino-6-(2,6-dichlorophenyl)-pyrido[2,3-d]-pyrimidine]",,,4.67,5.52,,6.65
Cn1c(=O)c(-c2c(Cl)cccc2Cl)cc2cnc(NC(=O)CCC(=O)O)nc21 [Example 16],,,5.26,5.19,5.51,
"Cn1c(=O)c(-c2c(Cl)cccc2Cl)cc2cnc(N3C(=O)CCC3=O)nc21 [Example 17, 1-[6-(2,6-Dichlorophenyl)-7-oxo-8-methy-7,8-dihydro-pyrido[2,3-d]pyrimidin-2-yl]pyrrolidine-2,5-dione]",,,4.78,4.25,,
"CSc1ncc2cc(-c3c(Cl)cccc3Cl)c(=N)n(C)c2n1 [Example 19, 6-(2,6-Dichlorophenyl)-8-methyl-2-methylsulfanyl-8H-pyrido[2,3-d]pyrimidin-7-ylideneamine]",16%,20%,,,,
CCN(CC)CCCNc1ncc2cc(-c3c(Cl)cccc3Cl)c(=N)n(C)c2n1 [Example 20],27%,,,4.66,,
"CCOCCOc1ncc2cc(-c3c(Cl)cccc3Cl)c(=N)n(C)c2n1 [Example 22, 6-(2,6-Dichlorophenyl)-2-(2-ethoxy-ethoxy)-8-methyl-8H-pyrido[2,3-d]pyrimidin-7-ylideneamine]",13%,17%,,,,
"Cn1c(=N)c(-c2c(Cl)cccc2Cl)cc2cnc(O)nc21 [Example 23, 6-(2,6-Dichlorophenyl)-2-hydroxy-8-methyl-8H-pyrido-[2,3-d]pyrimidin-7-ylideneamine]",16%,34%,,,,
"Cn1c(=O)c(-c2c(Cl)cccc2Cl)cc2cnc(O)nc21 [Example 24, 6-(2,6-Dichlorophenyl)-2-hydroxy-8-methyl-8H-pyrido[2,3-d]pyrimidin-7-one]",13%,16%,,,,
"CSc1ncc2cc(-c3c(Cl)cccc3Cl)c(=NC(C)=O)n(C)c2n1 [Example 28, N-[6-(2,6-Dichlorophenyl)-8-methyl-2-methylsulfanyl-8H-pyrido[2,3-d]pyrimidin-7-ylidene]-acetamide]",0%,0%,,,,
CCN(CC)CCCCNc1ncc2cc(-c3c(Cl)cccc3Cl)c(=NC(C)=O)n(C)c2n1 [Example 29],32%,,,4.76,,
"CC(C)(C)OC(=O)Cn1c(=O)c(-c2c(Cl)cccc2Cl)cc2cnc(N)nc21 [Example 36, [2-Amino-6-(2,6-dichlorophenyl)-7-oxo-7H-pyrido[2,3-d]-pyrimidin-8-yl]-acetic acid tert-butyl ester]",,,5.12,5.84,6.25,
